{"source": "paper PMC8942850", "about": "“Boron clusters as broadband membrane carriers” (Nature, 2022)", "key": {"[1]": {"test": "HPTS/DPX transport assay in zwitterionic EYPC vesicles", "type": "in vitro ADME", "set-up": "key to Et: Et = Ymax × (pEC50/ft); pEC50 = −log EC50", "conditions": "for Et transport efficiency: Et = Ymax × (pEC50/ft), ft = 19.8 so that WR7 equals 10.0, B12Br12^2− (40 μM) carrier, 5% error (SD) unless stated; for Ymax (%) maximal activity, transport of cargo / EC50: cargo concentration varied, B12Br12^2− (40 μM) as common carrier, EYPC⊃HPTS/DPX vesicles, pH 7.4, Hill analysis, 10% error (SD) unless stated, n.t. = no detectable transport; for Ymax (%) maximal activity, transport of cargo: 13 µM lipid, 10 mM Tris, 107 mM NaCl, HPTS fluorescence; for EC50: read-out: EC50 (μM) effective cargo concentration to reach 50% of Ymax", "method": "The well-established HPTS/DPX assay, which uses 8-hydroxypyrene-1,3,6-trisulfonate (HPTS) and p-xylene-bis-pyridinium (DPX), was implemented to monitor peptide-transport activation (Fig. 2a). […] A surfactant (Triton X-100) was added at the end of the experiment (t = 600 s) to release all vesicle content and normalize the fluorescence intensity data.\nFig. 2 Carrier activity obtained from the HPTS/DPX assay. a, Schematic representation of the transport of otherwise impermeable analytes facilitated by superchaotropic cluster anions with encapsulated HPTS/DPX probe/quencher pair used for signalling. […] Concentrations of carrier and cargo, when fixed, were 40 and 20 µM, respectively, unless explicitly stated. Source data\nA thin lipid film was prepared by evaporating a lipid solution with a stream of nitrogen and then dried in vacuo overnight.\nFluorescence intensities were normalized to fractional emission as I(t) = (It − I0)/(I∞ − I0), where I0 = It before cluster addition and I∞ = It after lysis.\nIn the activator measurements, in which different activators were tested with the same cargo, the activator efficiency (Ea) is determined from their ability to activate the transport of an impermeable cargo molecule and is characterized by Ymax, its maximal activity, and EC50, the effective activator concentration. A potent activator reaches high Ymax at low EC50. To reflect both factors, the activator efficiency is defined as Ea = Ymax × (pEC50/fa), where pEC50 is the negative logarithm of EC50.\nIn the transport measurements, in which different types of cargo were tested with the same activator, the transport efficiency (Et) reports on the sensitivity of the cargo for being transported and is described by Ymax, the maximal activity, and EC50, the effective cargo concentration. An easily accessible cargo reaches high Ymax at low EC50. The transport efficiency is defined as a composition of both parameters according to Et = Ymax × (pEC50/ft), where pEC50 is the negative logarithm of EC50.\nExtended Data Fig. 3 Transport activity. a, Transport activity, Y, in EYPC⊃HPTS/DPX vesicles as a function of cluster concentration at constant cargo concentration (WR7, 20 µM). b, Transport activity, Y, for B12Br12^2− (40 µM) in EYPC⊃HPTS/DPX vesicles as a function of the concentration of different cargo types; red lines correspond to the resulting fit with the Hill equation. Source data"}, "[2]": {"system": "HeLa cells", "test": "MTT viability with MMAF in absence or presence of B12Br12^2−", "type": "cell-based", "conditions": "for mean_viability: cluster 0, mean of three technical replicates; for IC50: MMAF", "method": "The incubation mixtures were replaced with DMEM + 10% FBS + 0.5 mg ml^–1 MTT. For the viability assays in the presence of B12Br12^2− or R8, HeLa, GT1-7, ARPE-19 and A549 cells were seeded the day before in 96-well plates at 6,000 cells per well. Cells were incubated with B12Br12^2− or R8 dissolved in HKR buffer for 3 h and, thereafter, incubated for 24 h with complete medium before incubating with complete medium and 0.5 mg ml^−1 MTT. For viability studies in the presence of MMAF, HeLa cells were incubated with MMAF and B12Br12^2− diluted in DMEM (without serum or antibiotics) for 3 h. Cells were washed with 0.1 mg ml^−1 heparin and further incubated for 21 h in complete medium and 2 h in complete medium containing 0.5 mg ml^−1 MTT. For all types of assays, after 2 h of incubation, the medium was carefully removed, and formazan crystals dissolved by addition of DMSO. The absorbance at 570 nm was measured with a plate reader (Tecan Infinite F200Pro) and the data normalized to the value of untreated cells (100% viability). Data were analysed with R (v. 4.0.3)[54].\nSolid points indicate mean ± s.d. of three technical replicates. […] Cross-bars indicate mean ± s.d. of three independent experiments (two with technical triplicates, one with technical duplicates); values obtained in each experiment are represented by different shapes. c, Viability […] Solid points indicate mean ± s.d. of three technical replicates. d, Corresponding IC50 values of MMAF. Cross-bars indicate mean ± s.d. of four independent experiments, each with technical triplicates; each experiment is represented by a different shape. e, E. coli Top10 viability in the presence of different concentrations of kanamycin A monosulphate (0–3.5 μg/mL) and B12Br12^2− (0–1,000 μM) in LB broth at 37 °C; data are mean ± s.d. of triplicate measurements. Source data"}}, "note": "Where two headings read alike, the source gives them in different places. Residues, ends and D or L forms follow the SMILES beside them."}
{"compound": "CC(=O)OCC[N+](C)(C)C", "note": "[Acetylcholine, acetylcholine]", "values": [{"measurement": "Et transport efficiency", "setting": "[1]", "result": 7.0}, {"measurement": "Et", "setting": "[1]; Fig.2 d, per analyte (cargo)", "result": 7}, {"measurement": "Ymax (%) maximal activity, transport of cargo", "setting": "[1]", "result": 75, "unit": "%"}, {"measurement": "EC50", "setting": "[1]", "result": 13.8, "unit": "µM"}]}
{"compound": "CC1(C)S[C@@H]2[C@H](NC(=O)[C@H](N)c3ccccc3)C(=O)N2[C@H]1C(=O)O", "note": "[Ampicillin, ampicillin, reference compound]", "values": [{"measurement": "Et", "setting": "[1]", "result": 4.5}, {"measurement": "Et transport efficiency", "setting": "[1]", "result": 4.5}, {"measurement": "Ymax (%) maximal activity, transport of cargo", "setting": "[1]", "result": 74, "unit": "%"}, {"measurement": "EC50", "setting": "[1]", "result": 63, "unit": "µM"}]}
{"compound": "CC[C@H](C)[C@@H]([C@@H](CC(=O)N1CCC[C@H]1[C@H](OC)[C@@H](C)C(=O)N[C@@H](Cc1ccccc1)C(=O)O)OC)N(C)C(=O)[C@@H](NC(=O)[C@@H](NC)C(C)C)C(C)C", "note": "[MMAF, monomethyl auristatin F] (HELM PEPTIDE1{[meV].V.[CC[C@H](C)[C@@H]([C@@H](CC(=O)[*:2])OC)N(C)[*:1]].[CO[C@H]([C@@H](C)C(=O)[*:2])[C@@H]1CCCN1[*:1]].F}$$$$V2.0)", "values": [{"measurement": "mean_viability", "setting": "[2]; MMAF 39.0625 nM", "result": 103.936}, {"measurement": "percent_viability", "setting": "[2]; MMAF 39.0625 nM, cluster 0, technical replicate 1", "result": 103.03}, {"measurement": "percent_viability", "setting": "[2]; MMAF 39.0625 nM, cluster 0, technical replicate 2", "result": 107.013}, {"measurement": "percent_viability", "setting": "[2]; MMAF 39.0625 nM, cluster 0, technical replicate 3", "result": 101.765}, {"measurement": "mean_viability", "setting": "[2]; MMAF 78.125 nM", "result": 83.7598}, {"measurement": "percent_viability", "setting": "[2]; MMAF 78.125 nM, cluster 0, technical replicate 1", "result": 94.8234}, {"measurement": "IC50", "setting": "[2]; cluster 0, 3 h in DMEM + 21 h medium, experiment_2, read-out: IC50", "result": 1210, "unit": "nM"}, {"measurement": "IC50", "setting": "[2]; cluster 0, 3 h in DMEM + 21 h medium, experiment_3, read-out: IC50", "result": 1290, "unit": "nM"}, {"measurement": "IC50", "setting": "[2]; cluster 0, 3 h in DMEM + 21 h medium, experiment_4, read-out: IC50", "result": 1410, "unit": "nM"}, {"measurement": "IC50", "setting": "[2]; cluster 0, 3 h in DMEM + 21 h medium, mean of four independent experiments, read-out: mean_IC50", "result": 1210, "unit": "nM"}, {"measurement": "IC50", "setting": "[2]; cluster 5 µM as printed, 3 h in DMEM + 21 h medium, experiment_1, read-out: IC50", "result": 512, "unit": "nM"}, {"measurement": "IC50", "setting": "[2]; cluster 5 µM as printed, 3 h in DMEM + 21 h medium, experiment_2, read-out: IC50", "result": 709, "unit": "nM"}, {"measurement": "IC50", "setting": "[2]; cluster 5 µM as printed, 3 h in DMEM + 21 h medium, experiment_3, read-out: IC50", "result": 905, "unit": "nM"}, {"measurement": "IC50", "setting": "[2]; cluster 5 µM as printed, 3 h in DMEM + 21 h medium, experiment_4, read-out: IC50", "result": 870, "unit": "nM"}, {"measurement": "IC50", "setting": "[2]; cluster 10 µM as printed, 3 h in DMEM + 21 h medium, experiment_1, read-out: IC50", "result": 467, "unit": "nM"}, {"measurement": "IC50", "setting": "[2]; cluster 10 µM as printed, 3 h in DMEM + 21 h medium, experiment_2, read-out: IC50", "result": 568, "unit": "nM"}, {"measurement": "IC50", "setting": "[2]; cluster 10 µM as printed, 3 h in DMEM + 21 h medium, experiment_3, read-out: IC50", "result": 660, "unit": "nM"}, {"measurement": "IC50", "setting": "[2]; cluster 10 µM as printed, 3 h in DMEM + 21 h medium, experiment_4, read-out: IC50", "result": 583, "unit": "nM"}, {"measurement": "IC50", "setting": "[2]; cluster (B12Br12^2−) 5 mM as printed, 3 h in DMEM + 21 h medium, mean of four independent experiments, read-out: mean_IC50", "result": 749, "unit": "nM"}, {"measurement": "IC50", "setting": "[2]; cluster (B12Br12^2−) 10 mM as printed, 3 h in DMEM + 21 h medium, mean of four independent experiments, read-out: mean_IC50", "result": 569, "unit": "nM"}]}
{"compound": "N[C@@H](Cc1ccccc1)C(=O)O", "note": "[Phenylalanine]", "values": [{"measurement": "Et transport efficiency", "setting": "[1]", "result": "0.5 ± 0.2"}, {"measurement": "Et", "setting": "[1]; Fig.2 d, per analyte (cargo)", "result": 0.5}, {"measurement": "Ymax (%) maximal activity, transport of cargo", "setting": "[1]", "result": "10 ± 4", "unit": "%"}, {"measurement": "EC50", "setting": "[1]", "result": 109, "unit": "µM"}]}
{"compound": "CNC(=C[N+](=O)[O-])NCCSCc1ccc(CN(C)C)o1", "note": "[Ranitidine, reference compound]", "values": [{"measurement": "Et transport efficiency", "setting": "[1]", "result": 3.9}, {"measurement": "Et", "setting": "[1]; Fig.2 d, per analyte (cargo)", "result": 3.9}, {"measurement": "Ymax (%) maximal activity, transport of cargo", "setting": "[1]", "result": 70, "unit": "%"}, {"measurement": "EC50", "setting": "[1]", "result": 75.9, "unit": "µM"}]}
{"compound": "N[C@@H](Cc1c[nH]c2ccccc12)C(=O)O", "note": "[Tryptophan]", "values": [{"measurement": "Et", "setting": "[1]", "result": 9.6}, {"measurement": "Et transport efficiency", "setting": "[1]", "result": 9.6}, {"measurement": "Ymax (%) maximal activity, transport of cargo", "setting": "[1]", "result": 72, "unit": "%"}, {"measurement": "EC50", "setting": "[1]", "result": 2.4, "unit": "µM"}]}
{"compound": "CC(=O)O[C@H]1C[C@@H]2CC[C@@H]3[C@H](CC[C@@]4(C)[C@H]3C[C@H]([N+]3(C)CCCCC3)[C@@H]4OC(C)=O)[C@@]2(C)C[C@@H]1N1CCCCC1", "note": "[Vecuronium, reference compound]", "values": [{"measurement": "Et", "setting": "[1]", "result": 3.5}, {"measurement": "Et transport efficiency", "setting": "[1]", "result": 3.5}, {"measurement": "Ymax (%) maximal activity, transport of cargo", "setting": "[1]", "result": 64, "unit": "%"}, {"measurement": "EC50", "setting": "[1]", "result": 50.6, "unit": "µM"}]}
{"compound": "Cc1ncc(C[n+]2csc(CCO)c2C)c(N)n1", "note": "[Vitamin B1]", "values": [{"measurement": "Et transport efficiency", "setting": "[1]", "result": 6.5}, {"measurement": "Et", "setting": "[1]; Fig.2 d, per analyte (cargo)", "result": 6.5}, {"measurement": "Ymax (%) maximal activity, transport of cargo", "setting": "[1]", "result": 73, "unit": "%"}, {"measurement": "EC50", "setting": "[1]", "result": 16.6, "unit": "µM"}]}
{"compound": "phalloidin [reference compound]", "values": [{"measurement": "Et", "setting": "[1]", "result": 2.3}, {"measurement": "Et transport efficiency", "setting": "[1]", "result": "2.3 ± 0.3"}, {"measurement": "Ymax (%) maximal activity, transport of cargo", "setting": "[1]", "result": "90 ± 10", "unit": "%"}, {"measurement": "EC50", "setting": "[1]", "result": "310 ± 70", "unit": "µM"}]}
{"compound": "protamine", "values": [{"measurement": "Et transport efficiency", "setting": "[1]", "result": 10.0}, {"measurement": "Et", "setting": "[1]; Fig.2 d, per analyte (cargo)", "result": 10}, {"measurement": "Ymax (%) maximal activity, transport of cargo", "setting": "[1]", "result": 76, "unit": "%"}, {"measurement": "EC50", "setting": "[1]", "result": 2.4, "unit": "µM"}]}
